In patent publication US7037644B1, “Means and methods for monitoring non-nucleoside reverse transcriptase inhibitor antiretroviral therapy and guiding therapeutic decisions in the treatment of HIV/AIDS” (ViroLogic, Inc., priority 1998, dated 2006):
Where “and” joins values, the source holds several entries; their conditions need not be identical. Identical values can stand only once.

Assays:
Assay type in all cases: cell-based, HIV-1
Y188C-RTV = test: Phenotypic susceptibility assay (site directed mutant RTV); conditions: Y188C alone
Description: (§1) The resistance test vectors containing a functional luciferase gene cassette were constructed and host cells were transfected with the resistance test vector DNA. The resistant test vectors contained patient-derived reverse transcriptase and protease sequences that were either susceptible or resistant to the antiretroviral agents, such as nucleoside reverse transcriptase inhibitors, non-nucleoside reverse transcriptase inhibitors and protease inhibitors. The resistance test vector viral particles produced by transfecting the resistance test vector DNA into host cells, either in the presence or absence of protease inhibitors, were used to infect target host cells grown either in the absence of NRTI or NNRTI or in the presence of increasing concentrations of the drug. The amount of luciferase activity produced in infected target host cells in the presence of drug was compared to the amount of luciferase produced in infected target host cells in the absence of drug. […] The IC50 values were determined by plotting percent drug inhibition vs. log10 drug concentration.
(§2) Host cells were seeded in 10-cm-diameter dishes and were transfected several days after plating with resistance test vector plasmid DNA and the envelope expression vector. […] HIV capsid protein (p24) levels in the harvested cell culture media were determined by an EIA method as described by the manufacturer (SIAC; Frederick, Md.). […] The inhibitory effect of the drug was determined using the following equation: % luciferase inhibition=1−(RLUluc [drug]÷RLUluc)×100 where RLUluc [drug] is the relative light unit of luciferase activity in infected cells in the presence of drug and RLUluc is the Relative Light Unit of luciferase activity in infected cells in the absence of drug. […]
The Y188C mutation was introduced into the resistance test vector using the mega-primer method for site-directed mutagenesis (Sakar and Sommar, Ibid.). […] We determined the pattern of phenotypic susceptibility to the NNRTIs., delavirdine, nevirapine and efavirenz, in the Y188C-RTV.

Y188L-RTV = test: as above; conditions: for loss of susceptibility (fold, IC50) vs wild type control RTV: Y188L alone; for change in susceptibility: mutation at codon 188
Description: (§3) The resistance test vectors containing a functional luciferase gene cassette were constructed and host cells were transfected with the resistance test vector DNA. The resistant test vectors contained patient-derived reverse transcriptase and protease sequences that were either susceptible or resistant to the antiretroviral agents, such as nucleoside reverse transcriptase inhibitors, non-nucleoside reverse transcriptase inhibitors and protease inhibitors. The resistance test vector viral particles produced by transfecting the resistance test vector DNA into host cells, either in the presence or absence of protease inhibitors, were used to infect target host cells grown either in the absence of NRTI or NNRTI or in the presence of increasing concentrations of the drug. The amount of luciferase activity produced in infected target host cells in the presence of drug was compared to the amount of luciferase produced in infected target host cells in the absence of drug. Drug resistance was measured as the amount of drug required to inhibit by 50% the luciferase activity detected in the absence of drug (inhibitory concentration 50%, IC50). The IC50 values were determined by plotting percent drug inhibition vs. log10 drug concentration.
(§4) Host cells were seeded in 10-cm-diameter dishes and were transfected several days after plating with resistance test vector plasmid DNA and the envelope expression vector. Transfections were performed using a calcium-phosphate precipitation procedure. The cell culture media containing the DNA precipitate was replaced with fresh medium, from one to 24 hours, after transfection. Cell culture media containing resistance test vector viral particles was harvested one to four days after transfection and was passed through a […] filter before being stored at […]. HIV capsid protein (p24) levels in the harvested cell culture media were determined by an EIA method as described by the manufacturer (SIAC; Frederick, Md.). Before infection, target cells (293 and 293/T) were plated in cell culture media. Control infections were performed using cell culture media from mock transfections (no DNA) or transfections containing the resistance test vector plasmid DNA without the envelope expression plasmid. One to three or more days after infection the media was removed and cell lysis buffer (Promega) was added to each well. Cell lysates were assayed for luciferase activity (FIG. 3). The inhibitory effect of the drug was determined using the following equation: % luciferase inhibition=1−(RLUluc [drug]÷RLUluc)×100 where RLUluc [drug] is the relative light unit of luciferase activity in infected cells in the presence of drug and RLUluc is the Relative Light Unit of luciferase activity in infected cells in the absence of drug. IC50 values were obtained from the sigmoidal curves that were generated from the data by plotting the percent inhibition of luciferase activity vs. the log10 drug concentration. The drug inhibition curves are shown in (FIG. 3).
The Y188L mutation was introduced into the resistance test vector using the mega-primer method for site-directed mutagenesis (Sakar and Sommar, Ibid.). A resistance test vector containing the Y188L mutation (Y188L-RTV) was then tested using the phenotypic assay described earlier and the results were compared to those determined using a genetically defined resistance test vector that was wild type at position 188. We determined the pattern of phenotypic susceptibility to the NNRTIs, delavirdine, nevirapine and efavirenz, in the Y188L-RTV. […] The approximate 100-fold loss of susceptibility to efavirenz was not as high as had been previously reported.

V108I-RTV = test: as above; conditions: for change in susceptibility (fold, IC50) vs wild type control RTV: V108I alone; for change in susceptibility: mutation at codon 108
Description: as §3, §4
The V108I mutation was introduced into the resistance test vector using the mega-primer method for site directed mutagenesis (Sakar and Sommar, Ibid.). A resistance test vector containing the V108I mutation (V108I-RTV) was then tested using the phenotypic assay described earlier and the results were compared to those determined using a genetically defined resistance test vector that was wild type at position 108. We determined the pattern of phenotypic susceptibility to the NNRTIs, delaviridine, nevirapine and efavirenz, in the V108I-RTV.

[1] = system: RTV-1060, patient 98-1060 (RT K101E, G190S); test: Phenotypic susceptibility assay (patient RTV); conditions: patient RTV pool
Description: as §1, §2
A resistance test vector was constructed as described in Example 1 from a patient sample designated 98-644. […] RTV-644 and RTV-1060 were then tested in a phenotypic, assay to determine accurately and quantitatively the level of susceptibility to a panel of anti-retroviral drugs. […]

[2] = system: RTV-757, patient 98-757 (RT V106A, V108I, V189L); test: Phenotypic susceptibility assay (patient RTV); conditions: patient RTV pool
Description: as §3, §4
A resistance test vector was constructed as described in Example 1 from a patient sample designated 98-1033. […]

A98G-G190S-RTV = test: Phenotypic susceptibility assay (site directed mutant RTV); conditions: for change in susceptibility (fold, IC50) vs wild type control RTV: A98G and G190S, below 1 = increased susceptibility; for change in susceptibility: mutations at codons 98 and 190
Description: as §3, §4
The A98 and G190S mutations were introduced alone or in combination into the resistance test vector using the mega-primer method for site-directed mutagenesis (Sakar and Sommar, Ibid.). Resistance test vectors containing the A98G mutation (A98G-RTV), the G190S mutation (G190S-RTV) and both mutations (A98G-G190S-RTV) were then tested using the phenotypic assay described earlier and the results were compared to those determined using a genetically defined resistance test vector that was wild type at position 98 and 190. We determined the pattern of phenotypic susceptibility to the NNRTIs, delavirdine, nevirapine and efavirenz, in the three vectors.

| Compound | loss of susceptibility (fold, IC50) vs wild type control RTV (Y188C-RTV) [fold] | loss of susceptibility (fold, IC50) vs wild type control RTV (Y188L-RTV) | change in susceptibility (Y188L-RTV) | change in susceptibility (fold, IC50) vs wild type control RTV (V108I-RTV) [fold] | change in susceptibility (V108I-RTV) | decrease in susceptibility (fold, IC50) [1] | decrease in susceptibility (fold, IC50) [2] | change in susceptibility (fold, IC50) vs wild type control RTV (A98G-G190S-RTV) | change in susceptibility (A98G-G190S-RTV) |
| --- | --- | --- | --- | --- | --- | --- | --- | --- | --- |
| CC(C)Nc1cccnc1N1CCN(C(=O)c2cc3cc(NS(C)(=O)=O)ccc3[nH]2)CC1 [delavirdine] | 3 | 9 fold | slight decrease | 1.3 | no change | 1.5 fold | 10 fold | 0.8 fold | increase |
| O=C1Nc2ccc(Cl)cc2[C@@](C#CC2CC2)(C(F)(F)F)O1 [efavirenz] | 20 | 109 fold and ~100 fold and 110 fold | significant decrease | 1.7 | no change | 900 fold |  | greater than 250 fold | substantial decrease |
| Cc1ccnc2c1NC(=O)c1cccnc1N2C1CC1 [nevirapine] | 30 | greater than 800 fold | substantial decrease | 3 | slight decrease | greater than 800 fold | greater than 800 fold | greater than 800 fold | substantial decrease |
